For this series, the system named is HT-29 human carcinoma cells. Nature of the series: cells. The following applies: for Cloning Efficiency (% of control): 72 hours. How it is done: HT-29 human carcinoma cells (ATCC No. HTB-38) were maintained in RPMI 1640 with 10%v/v fetal bovine serum (GIBCO) in a humidified, 5% CO2 atmosphere at 37° C. Cells were plated in 24 well plates (150 cells per well) in RPMI 1640 medium with 10% v/v dialyzed fetal bovine serum. […] The various agents were diluted in phosphate-buffered saline (PBS), and control wells received vehicle alone. After 72 hours, drug containing medium was removed and replaced with RPMI 1640 with 10%v/v fetal bovine serum. Cell colonies were allowed to grow for an additional 7-10 days, at which point they were stained and counted. […] Data are means of at least 3 determinations.

Setting [1] is: 5-FU 0, IFN 500 u/ml, 5-ETH or 5-PRO 150 μM.
Setting [2] is: 5-FU 0.05 μM, IFN 500 u/ml, 5-ETH or 5-PRO 150 μM.
Where [3] appears, read: 5-FU 0.10 μM, IFN 500 u/ml, 5-ETH or 5-PRO 150 μM.
Where [4] appears, read: 5-FU 0.25 μM, alone (CONT) or with IFN 500 u/ml, 5-ETH or 5-PRO 150 μM.
Setting [5] is: 5-FU 0.50 μM, alone (CONT) or with IFN 500 u/ml, 5-ETH or 5-PRO 150 μM.
Setting [6] is: 5-FU 1.0 μM, alone (CONT) or with IFN 500 u/ml, 5-ETH or 5-PRO 150 μM.
Where [7] appears, read: 5-FU 1.5 μM, alone (CONT) or with IFN 500 u/ml, 5-ETH or 5-PRO 150 μM.

The structures appear in SMILES notation.

As to `C#CCOc1cn([C@H]2C[C@H](O)[C@@H](CO)O2)c(=O)[nH]c1=O` [5-propynyloxy-2'-deoxyuridine, 5-(2-propynyloxy)-2'-deoxyuridine], the “increased the cytotoxicity of 5-fluorouracil” value was 7.7 times. Besides, under setting [1], the “Cloning Efficiency (% of control)” value is on record as 105%. Also, under setting [2], the “Cloning Efficiency (% of control)” value amounted to 100%. Under setting [3], the “Cloning Efficiency (% of control)” value is 81%. Under setting [4], the “Cloning Efficiency (% of control)” value was determined as 51%. The “Cloning Efficiency (% of control)” value under setting [5] is listed as 26%. The “Cloning Efficiency (% of control)” value under setting [6] is on record as 9%. Further, under setting [7], the “Cloning Efficiency (% of control)” value was 4%. Besides, for the setting “5-FU 2.0 μM, alone (CONT) or with IFN 500 u/ml, 5-PRO 150 μM”, the “Cloning Efficiency (% of control)” value was found to be 2%. In addition, where the note is “5-FU 3.0 μM, alone (CONT) or with IFN 500 u/ml, 5-PRO 150 μM”, the “Cloning Efficiency (% of control)” value was 0%.

As to `CCOc1cn([C@H]2C[C@H](O)[C@@H](CO)O2)c(=O)[nH]c1=O` [5-ethoxy-2'-deoxyuridine], the “increased the cytotoxicity of 5-fluorouracil” value is listed as 5.7 times. Further, under setting [1], the “Cloning Efficiency (% of control)” value is on record as 89%. The “Cloning Efficiency (% of control)” value under setting [2] is given as 81%. Moreover, under setting [3], the “Cloning Efficiency (% of control)” value is given as 80%. For the same molecule, the “Cloning Efficiency (% of control)” value under setting [4] came to 60%. In addition, under setting [5], the “Cloning Efficiency (% of control)” value is reported as 38%. Moreover, under setting [6], the “Cloning Efficiency (% of control)” value stood at 13%. In addition, under setting [7], the “Cloning Efficiency (% of control)” value was determined as 4%.

Broadly, the IC50 is the concentration at which inhibition is half-maximal. On to `O=c1[nH]cc(F)c(=O)[nH]1` [5-FU, 5-fluorouracil], for which the IC50 (Homo sapiens, HT-29, 72 h, read-out: 5-FU IC50, with 5-propynyloxy-2'-deoxyuridine (150 μM), 3 days of drug treatment) is 260 nM. Moreover, for the setting “Homo sapiens, HT-29, 72 h, read-out: reduction in colonies”, the inhibition at 2 µM came out at 50%.
